Where two headings read alike, the source gives them in different places.
Experiments:
BAW (Spodoptera exigua) = assay: Bioassays on Beet Armyworm (BAW), 128-well diet tray assay; format: in vivo; settings: for pest or weed control at 50 µg/cm2: Spodoptera exigua, 168 h, read-out: BAW Rating
Procedure: (§1) Bioassays on Beet Armyworm (“BAW”) and Corn Earworm (“CEW”) and Cabbage Looper (“CL”)
(§2) Certain molecules disclosed in this document were tested against BAW and CEW and CL using procedures described in the following examples. In the reporting of the results, the “BAW & CEW & CL Rating Table” was used (See Table Section).
Bioassays on BAW (Spodoptera exigua)
Bioassays on BAW were conducted using a 128-well diet tray assay. one to five second instar BAW larvae were placed in each well (3 mL) of the diet tray that had been previously filled with 1 mL of artificial diet to which 50 μg/cm^2 of the test compound (dissolved in 50 μL of 90:10 acetone-water mixture) had been applied (to each of eight wells) and then allowed to dry. Trays were covered with a clear self-adhesive cover, and held at 25° C., 14:10 light-dark for five to seven days. Percent mortality was recorded for the larvae in each well; activity in the eight wells was then averaged. The results are indicated in the table entitled “Table 3: Assay Results” (See Table Section).

CEW (Helicoverpa zea) = assay: Bioassays on Corn Earworm (CEW), 128-well diet tray assay; format: in vivo; settings: for pest or weed control at 50 µg/cm2: Helicoverpa zea, 168 h, read-out: CEW Rating
Procedure: as §1, §2
Bioassays on CEW (Helicoverpa zea)
Bioassays on CEW were conducted using a 128-well diet tray assay. one to five second instar CEW larvae were placed in each well (3 mL) of the diet tray that had been previously filled with 1 mL of artificial diet to which 50 μg/cm^2 of the test compound (dissolved in 50 μL of 90:10 acetone-water mixture) had been applied (to each of eight wells) and then allowed to dry. Trays were covered with a clear self-adhesive cover, and held at 25° C., 14:10 light-dark for five to seven days. Percent mortality was recorded for the larvae in each well; activity in the eight wells was then averaged. The results are indicated in the table entitled “Table 3: Assay Results” (See Table Section).

[1] = percent mortality, second instar larvae, 50 μg/cm^2 on artificial diet, five to seven days, 25° C.

Compound	pest or weed control at 50 µg/cm2 (BAW (Spodoptera exigua)) [%]	pest or weed control at 50 µg/cm2 (CEW (Helicoverpa zea); [1]) [%]	further results
Cc1cc(/C=C/C(c2cc(Cl)cc(Cl)c2)C(F)(F)F)ccc1C(=O)NCc1ccccc1 (stereo not drawn) [AC11]	50 to 100	50 to 100	–
Cc1cc(/C=C/C(c2cc(Cl)cc(Cl)c2)C(F)(F)F)ccc1C(=O)NCc1ccccn1 (stereo not drawn) [AC12]	50 to 100	50 to 100	–
Cc1cc(/C=C/C(c2cc(Cl)cc(Cl)c2)C(F)(F)F)ccc1C(=O)NC(C)(C)c1ccccn1 (stereo not drawn) [AC16]	50 to 100	50 to 100	–
Cc1cc(/C=C/C(c2cc(Cl)cc(Cl)c2)C(F)(F)F)ccc1C(=O)NCc1ccoc1 (stereo not drawn) [AC20]	50 to 100	50 to 100	–
Cc1cc(/C=C/C(c2cc(Cl)c(Cl)c(Cl)c2)C(F)(F)F)ccc1C(=O)NCc1ccc(Cl)nc1 (stereo not drawn) [AC22]	50 to 100	50 to 100	–
Cc1cc(/C=C/C(c2cc(Cl)cc(Cl)c2)C(F)(F)F)ccc1C(=O)NCC(=O)NCC(F)(F)F (stereo not drawn) [AC24]	–	–	BAW Rating (BAW (Spodoptera exigua); [1]): A (50-100); CEW Rating (CEW (Helicoverpa zea); [1]): A (50-100)
O=C(NC1CS(=O)(=O)C1)c1ccc(/C=C/C(c2cc(Cl)c(Cl)c(Cl)c2)C(F)(F)F)cc1C(F)(F)F (stereo not drawn) [AC35]	50 to 100	50 to 100	–
Cc1cc(/C=C/C(c2cc(Cl)c(F)c(Cl)c2)C(F)(F)F)ccc1C(=O)NCc1ccc(Cl)nc1 (stereo not drawn) [AC38]	50 to 100	50 to 100	–
Cc1cc(/C=C/C(c2cc(Cl)cc(Cl)c2)C(F)(F)F)ccc1C(=O)NCc1cncnc1 (stereo not drawn) [AC39, 4-((E)-3-(3,5-Dichlorophenyl)-4,4,4-trifluorobut-1-enyl)-2-methyl-N-((pyrimidin-5-yl)methyl)benzamide]	50 to 100	50 to 100	–
Cc1cc(/C=C/C(c2cc(Cl)cc(Cl)c2)C(F)(F)F)ccc1C(=O)NCC(=O)NC1CC1 (stereo not drawn) [AC40]	50 to 100	50 to 100	–
Cc1cc(/C=C/C(c2cc(Cl)cc(Cl)c2)C(F)(F)F)ccc1C(=O)NCC(=O)NC1CSC1 (stereo not drawn) [AC41]	50 to 100	–	–
Cc1cc(/C=C/C(c2cc(Cl)cc(Cl)c2)C(F)(F)F)ccc1C(=O)NCc1nc2ccccc2s1 (stereo not drawn) [AC42]	50 to 100	–	–
Cc1cc(/C=C/C(c2cc(Cl)cc(Cl)c2)C(F)(F)F)ccc1C(=O)NN(C)c1ccccc1F (stereo not drawn) [AC45]	50 to 100	50 to 100	–
O=C(NCc1ccc(Cl)cn1)c1ccc(/C=C/C(c2cc(Cl)cc(Cl)c2)C(F)(F)F)cc1Br (stereo not drawn) [AC46]	50 to 100	50 to 100	–
O=C(CNC(=O)c1ccc(/C=C/C(c2cc(Cl)cc(Cl)c2)C(F)(F)F)cc1F)NCC(F)(F)F (stereo not drawn) [AC62]	50 to 100	50 to 100	–
O=C(CNC(=O)c1ccc(/C=C/C(c2cc(Cl)c(F)c(Cl)c2)C(F)(F)F)cc1F)NCC(F)(F)F (stereo not drawn) [AC68]	50 to 100	50 to 100	–
Cc1cc(/C=C/C(c2cc(Cl)cc(Cl)c2)C(F)(F)F)ccc1C(=O)NCC(=O)NC1CS(=O)(=O)C1 (stereo not drawn) [AC81]	50 to 100	–	–
O=C(NC1CS(=O)(=O)C1)c1ccc(/C=C/C(c2cc(Cl)c(F)c(Cl)c2)C(F)(F)F)cc1F (stereo not drawn) [AC84]	50 to 100	50 to 100	–
CCc1cc(/C=C/C(c2cc(Cl)c(F)c(Cl)c2)C(F)(F)F)ccc1C(=O)NC1CS(=O)(=O)C1 (stereo not drawn) [AC86]	50 to 100	50 to 100	–
FC(F)(F)CNC(=S)CNC(=S)c1ccc(/C=C/C(c2cc(Cl)c(Cl)c(Cl)c2)C(F)(F)F)cc1Br (stereo not drawn) [AC90, (E)-2-Bromo-N-(2-thioxo-2-((2,2,2-trifluoroethyl)amino)ethyl)-4-(4,4,4-trifluoro-3-(3,4,5-trichlorophenyl)but-1-en-1-yl)benzothioamide]	50 to 100	50 to 100	–
O=C(CNC(=S)c1ccc(/C=C/C(c2cc(Cl)c(Cl)c(Cl)c2)C(F)(F)F)cc1Br)NCC(F)(F)F (stereo not drawn) [AC91, (E)-2-(2-Bromo-4-(4,4,4-trifluoro-3-(3,4,5-trichlorophenyl)but-1-en-1-yl)phenylthioamido)-N-(2,2,2-trifluoroethyl)acetamide]	50 to 100	50 to 100	–
O=C(NCC(=S)NCC(F)(F)F)c1ccc(/C=C/C(c2cc(Cl)c(Cl)c(Cl)c2)C(F)(F)F)cc1Br (stereo not drawn) [AC92, (E)-2-Bromo-N-(2-thioxo-2-((2,2,2-trifluoroethyl)amino)ethyl)-4-(4,4,4-trifluoro-3-(3,4,5-trichlorophenyl)but-1-en-1-yl)benzamide]	50 to 100	50 to 100	–

Compound	pest or weed control at 50 µg/cm2 (BAW (Spodoptera exigua)) [%]	pest or weed control at 50 µg/cm2 (CEW (Helicoverpa zea); [1]) [%]	further results
Cc1cc(/C=C\C(c2cc(Cl)cc(Cl)c2)C(F)(F)F)ccc1C(=O)NCC(=O)NC1CC1 (stereo not drawn) [AC93]	50 to 100	–	–
O=C(CNC(=O)c1ccc(/C=C\C(c2cc(Cl)c(Cl)c(Cl)c2)C(F)(F)F)cc1Br)NCC(F)(F)F (stereo not drawn) [AC95, (Z)-2-Bromo-N-(2-oxo-2-((2,2,2-trifluoroethyl)amino)ethyl)-4-(4,4,4-trifluoro-3-(3,4,5-trichlorophenyl)but-1-en-1-yl)benzamide]	50 to 100	50 to 100	–
O=C(CNC(=O)c1ccc(/C=C/C(c2cc(Cl)c(F)c(Cl)c2)C(F)(F)F)cc1[N+](=O)[O-])NCC(F)(F)F (stereo not drawn) [AC98]	50 to 100	50 to 100	–
O=C(CNC(=O)c1ccc(/C=C/C(c2ccc(F)c(Cl)c2)C(F)(F)F)cc1Br)NCC(F)(F)F (stereo not drawn) [AC99]	50 to 100	50 to 100	–
O=C(CNC(=O)c1ccc(/C=C/C(c2cc(F)c(Cl)c(F)c2)C(F)(F)F)cc1Br)NCC(F)(F)F (stereo not drawn) [AC102]	–	50 to 100	–
O=C(NC1CCN(C2COC2)CC1)c1ccc(/C=C/C(c2cc(Cl)c(Cl)c(Cl)c2)C(F)(F)F)cc1Br (stereo not drawn) [AC108, (E)-2-Bromo-N-(1-(oxetan-3-yl)piperidin-4-yl)-4-(4,4,4-trifluoro-3-(3,4,5-trichlorophenyl)but-1-en-1-yl)benzamide]	0 to 50	–	–
Cc1cc(/C=C/C(c2cc(Cl)cc(Cl)c2)C(F)(F)F)ccc1C(=O)NCC1CCCO1 (stereo not drawn) [AC118]	50 to 100	–	–
O=C(Cn1ncc2cc(/C=C/C(c3cc(Cl)c(F)c(Cl)c3)C(F)(F)F)ccc2c1=O)NCC(F)(F)F (stereo not drawn) [BC14, (E)-2-(6-(3-(3,5-Dichloro-4-fluorophenyl)-4,4,4-trifluorobut-1-en-1-yl)-1-oxophthalazin-2(1H)-yl)-N-(2,2,2-trifluoroethyl)acetamide]	50 to 100	–	–
O=C(Cc1ccc(Cl)nc1)NCc1ccc(/C=C/C(c2cc(Cl)c(Cl)c(Cl)c2)C(F)(F)F)cc1Cl (stereo not drawn) [CC14]	50 to 100	–	–
CCNC(=O)NCc1ccc(/C=C/C(c2cc(Cl)cc(Cl)c2)C(F)(F)F)cc1Cl (stereo not drawn) [CC31, (E)-1-(2-Chloro-4-(3-(3,5-dichlorophenyl)-4,4,4-trifluorobut-1-en-1-yl)benzyl)-3-ethylurea]	0 to 50	–	–
O=C(NCc1ccc(/C=C/C(c2cc(Cl)c(Cl)c(Cl)c2)C(F)(F)F)cc1Cl)Oc1ccccc1Cl (stereo not drawn) [CC40]	–	–	pest or weed control at 50 µg/cm2 (CEW (Helicoverpa zea)): 50 to 100%
O=C(CC(F)(F)F)NCc1ccc(/C=C/C(c2cc(Cl)c(Cl)c(Cl)c2)C(F)(F)F)c2ccccc12 (stereo not drawn) [CC46, (E)-3,3,3-Trifluoro-N-((4-(4,4,4-trifluoro-3-(3,4,5-trichlorophenyl)but-1-en-1-yl)naphthalen-1-yl)methyl)propanamide]	–	50 to 100	–
O=C(NOc1ccc(/C=C/C(c2cc(Cl)c(Cl)c(Cl)c2)C(F)(F)F)cc1)C1CC1 (stereo not drawn) [CC52, (E)-N-(4-(4,4,4-Trifluoro-3-(3,4,5-trichlorophenyl)but-1-en-1-yl)phenoxy)cyclopropanecarboxamide]	50 to 100	–	–
FC(F)(F)C(/C=C/c1ccc(-n2cncn2)cc1)c1ccccc1 (stereo not drawn) [DC3]	0 to 50	–	–
FC(F)(F)C(/C=C/c1ccc(-n2cncn2)cc1)c1ccc(Cl)cc1 (stereo not drawn) [DC4]	50 to 100	–	–
Fc1ccc(C(/C=C/c2ccc(-n3cncn3)cc2)C(F)(F)F)cc1 (stereo not drawn) [DC7]	50 to 100	–	–
Fc1cc(F)cc(C(/C=C/c2ccc(-n3cncn3)cc2)C(F)(F)F)c1 (stereo not drawn) [DC8]	50 to 100	–	–
Cc1cc(C)cc(C(/C=C/c2ccc(-n3cncn3)cc2)C(F)(F)F)c1 (stereo not drawn) [DC11]	50 to 100	–	–
COc1c(Cl)cc(C(/C=C/c2ccc(-n3cncn3)cc2)C(F)(F)F)cc1Cl (stereo not drawn) [DC20]	50 to 100	–	–
Cc1ncnn1-c1ccc(/C=C/C(c2cc(Cl)cc(Cl)c2)C(F)(F)F)cc1 (stereo not drawn) [DC23]	–	50 to 100	–
OCc1cc(/C=C/C(c2cc(Cl)cc(Cl)c2)C(F)(F)F)ccc1-n1cncn1 (stereo not drawn) [DC53]	–	50 to 100	–
Cc1cc(-n2cncn2)ccc1/C=C/C(c1cc(Cl)cc(Cl)c1)C(F)(F)F (stereo not drawn) [DC65]	–	50 to 100	–
